Results taken from ChEMBL document CHEMBL3352337, “Scaffold-switching: an exploration of 5,6-fused bicyclic heteroaromatics systems to afford antituberculosis activity akin to the imidazo[1,2-a]pyridine-3-carboxylates” (Bioorg Med Chem Lett, 2014).
Converted amounts (≈) assume the structure as drawn.

System: Mycobacterium tuberculosis variant bovis BCG
Experiment: Antimycobacterial activity against Mycobacterium bovis BCG ATCC 35734 in 7H12 medium after 6 days and 18 hrs after adding resazurin dye/Tween 80 by Microplate Alamar Blue assay
Type: functional

| Compound | MIC |
| --- | --- |
| Cc1cc(C)n2nc(C(=O)NCc3ccccc3)nc2n1 | > 128 µM |
| CO[C@H]1/C=C/O[C@@]2(C)Oc3c(C)c(O)c4c(O)c(c(/C=N/N5CCN(C)CC5)c(O)c4c3C2=O)NC(=O)/C(C)=C\C=C\[C@H](C)[C@H](O)[C@@H](C)[C@@H](O)[C@@H](C)[C@H](OC(C)=O)[C@@H]1C [RIFAMPIN] | < 0.004 µM |
| NNC(=O)c1ccncc1 [ISONIAZID] | 0.41 µM (≈ 0.0562 µg/mL) |
| Cc1ccc2nc(C)c(C(=O)NCc3ccccc3)n2c1 | 0.96 µM (≈ 0.268 µg/mL) |
| COc1c(N2C[C@@H]3CCCN[C@@H]3C2)c(F)cc2c(=O)c(C(=O)O)cn(C3CC3)c12 [MOXIFLOXACIN] | 0.06 µM (≈ 0.0241 µg/mL) |
| Cc1ccn2c(C(=O)NCc3ccccc3)nnc2c1 | > 128 µM |
| Cc1ccn2c(C)c(C(=O)NCc3ccccc3)nc2c1 | > 128 µM |
| Cc1ccc2nc(C)c(C(=O)NCc3ccccc3)n2n1 | > 128 µM |
| Cc1ccc2c(C(=O)NCc3ccccc3)c(C)[nH]c2c1 | > 128 µM |
| Cc1ccc2c(C(=O)NCc3ccccc3)n[nH]c2c1 | > 128 µM |
| Cc1cnc2nc(C)c(C(=O)NCc3ccccc3)n2c1 | 7.8 µM (≈ 2.19 µg/mL) |
